Values after ≈ are worked out from the molar mass of the structure shown. Where a name gives a salt, the structure may show the parent alone. Read-outs that look alike come from different tables or passages of the source.
Columns and labels:
[1] = test system: M. tuberculosis Erdman ATCC 35801; assay: Mycobacterium tuberculosis serum shift MIC assay (Protocol 5); format: cell-based
[2] = test system: M. tuberculosis ATCC 35801 (strain Erdman); assay: Mouse M. tuberculosis (Erdman) 28 day lung infection model; format: in vivo, M. tuberculosis; host Balb/c mice; conditions: 28 days
[3] = Seven-day oral (gavage) toxicity and toxicokinetics study in rats; format: in vivo, Crl:CD(SD) rats; conditions: for Mean food consumption: Compound 13 once daily 100 or 200 mg/kg, Compound 23A twice daily 300 mg/kg, different intervals of the study, not considered adverse; for adverse observations or effects on mean body weight / dose levels without adverse toxicity within the scope of the study / NOEL (No-Observable-Effect-Level) / exposures for different dosage levels: male rats; for adverse observations or effects on mean body weight / dose levels without adverse toxicity within the scope of the study: 7 days oral gavage; for NOEL (No-Observable-Effect-Level): once a day for 7 days orally via gavage; for exposures for different dosage levels: oral gavage, toxicokinetics; for histopathological findings: any dose regimen
From the text: Crl:CD(SD) rats were obtained from Charles River Laboratories of Stone Ridge, N.Y. The animals were laboratory bred and experimentally naïve. Rats were chosen because they are a species that is commonly used for nonclinical toxicity evaluations.
Forty rats (20 noncannulated males and 20 males with jugular vein cannulas) were ordered. From these animals, 15 noncannulated males and 15 cannulated males were used. Animals were as uniform in age as possible. The rats were prepubertal to young adult, approximately 9 weeks of age at initiation of dosing. Their supplier-calculated birth date was retained in the study records. The weight range for the animals at the time of allocation to groups was 218.5-306.3 g.
Animals received the test article or vehicle by oral gavage for 7 consecutive days and were terminated the day following completion of dosing. The first day of dosing was designated as Day 1 of the study. The animals were evaluated for changes in clinical signs, body weight, and other parameters as described below.
The vehicle and test article were administered by oral gavage once daily for 7 consecutive days at a dose volume of 10 mL/kg body weight for Group A and Groups B-D, respectively. The test article and vehicle were administered by oral gavage twice daily, approximately 8 hours apart, for 7 consecutive days at a dose volume of 10 mL/kg body weight for Group E and Group F, respectively. The actual volume administered to each animal was calculated and adjusted based on the most recent body weight of each animal.
During the treatment period, daily cageside observations were made and recorded predose and postdose (following the first dose only). The postdosing observations made during treatment occurred at the following times based on Cmax/Tmax for the two compounds from previous studies:
Prior to start of dosing, body weights were measured for randomization on Day 1. During the treatment, body weights were measured on Day 1 and Day 7. In addition, fasted body weights were measured prior to necropsy for calculation of organ/body weight ratios.
Throughout the study, food consumption was measured daily starting 3 days prior to start of dosing.
Blood samples for evaluation of hematology, coagulation, and serum chemistry parameters were collected from all animals from the retro-orbital plexus (under CO2/O2 anesthesia, for the main study animals) or jugular vein cannula (for the toxicokinetic animals) prior to necropsy. Due to residual heparin used to keep the cannulas patent for the toxicokinetic animals, coagulation samples from these rats, were not able to be analyzed. The animals were fasted overnight prior to blood collection. On the day of blood collection for clinical pathology analyses, the animals were not necropsied until after the blood was collected and the samples judged to be acceptable by the clinical pathology group.
On the 1st and 7th day of dosing, blood samples (approximately 0.5 mL/sample) were collected from the jugular vein cannula for all toxicokinetic animals at the timepoints listed below into K3EDTA-containing tubes. […] Prior to each collection, a small sample of blood (with heparin blocking solution) was removed from the cannula and discarded. A new syringe was placed on the cannula, and the protocol-required sample was taken. The syringe with the blood sample was removed, and a new syringe with saline attached to the cannula. Blood volume was replaced with an equal volume of saline and then blocking solution placed in the cannula. Each animal was returned to its cage until the next collection timepoint.
For all animals euthanized at scheduled necropsies, the kidneys, liver, and prostate gland were weighed. Following weighing, an approximate 1 gram sample of liver and kidney was weighed, transferred to Precellys 7 mL CK28 Tissue Homogenizing tubes (Cat. No. 0904-01), snap-frozen, and analyzed. […]

[4] = Rat oral pharmacokinetic study; format: in vivo, Sprague Dawley rats; conditions: 0.5% MC, plasma analyte
From the text: (§1) Plasma concentration vs. time data was subjected to noncompartmental pharmacokinetic (PK) analysis.

[5] = Monkey IV pharmacokinetic study; conditions: Compound W IV 5 mg/kg, D5W, plasma analyte
Protocol: Animals had free access to food and water before and after dosing.
Blood samples (approximately 0.25 mL each) were collected via a carotid artery catheter prior to dosing and at 0 (predose), 5 min, 10 min, 0.25, 0.5, 1, 2, 3, 4, 6, 8, 12, 24, 48 hours postdose. Each blood sample was collected into a tube that was kept on wet ice and contained potassium EDTA as the anticoagulant. Plasma was separated and stored at approximately −70° C. until analysis.
Plasma concentration vs. time data were subjected to noncompartmental pharmacokinetic (PK) analysis.

[6] = Rat IV pharmacokinetic study; conditions: D5W, plasma analyte
[7] = Monkey oral pharmacokinetic study; format: in vivo, cynomolgus monkeys; conditions: 0.5% MC, plasma analyte
From the text: as §1

[8] = Oral range finding toxicity and toxicokinetic study in male Cynomolgus monkeys; format: in vivo, Cynomolgus monkeys (Macaca Fascicularis)
From the text: Cynomolgus monkeys (Macaca Fascicularis) were obtained from Primus Bio-Resources Inc. of PinCourt, Quebec, Canada. Cynomolgus monkeys were chosen because they are a non-rodent species that is commonly used for nonclinical toxicity evaluations.
Eight (2 naive and 6 non-naïve) males were used in the study. The animals were young adults and weighed between 2 to 4 kg at the onset of dosing.
The first day of dosing was designated as Day 1 of the study. The actual volume administered to each animal was calculated and adjusted based on the most recent body weight of each animal.
Cage-side clinical signs (ill health, behavioral changes etc.) were recorded at least once daily during the study.
Body weights were recorded for all animals prior to group assignment and on Days 1 (prior to dosing), 3 and 7 as well as terminally prior to necropsy (fasted).
Electrocardiograms (bipolar limb leads I, II and III, and augmented unipolar leads aVR, aVL and aVF) were obtained for all monkeys once during the pre-treatment period and again on Day 7 (post-dosing).
The tracings were assessed for gross changes indicative of cardiac electrical dysfunction. The potential presence of abnormalities involving heart rate (lead II), sinus and atrioventricular rhythm or conductivity were determined. Heart rate, PR interval, QRS duration, QT and QTc intervals values were measured.
A series of 7 blood samples (approximately 0.5 mL each) were collected from each monkey on Days 1 and 7 at the following time points: predose, 30 minutes and 2, 3, 6, 12 and 24 hours post-dose. For this purpose, each monkey was bled by venipuncture and the samples were collected into tubes containing the anticoagulant, K2EDTA. Tubes were placed on wet ice until ready for processing.
Laboratory investigations (hematology, coagulation, clinical chemistry and urinalysis) were performed on all animals prior to start of treatment and prior to termination on Day 8.
A necropsy with tissue collection was conducted on all animals terminated during the study. The necropsy included examination of:
For all animals, all tissues indicated above were embedded in paraffin, sectioned and stained with hematoxylin and eosin and examined by light microscopy.

[9] = Stability of the solid forms (net increase in total impurities at 40 C/30% RH); format: physicochemical; conditions: 15 days
[10] = test system: Staphylococcus aureus ATCC 29213; assay: microbe, parasite or virus in culture; format: cell-based; conditions: Staphylococcus aureus, ATCC29213, Staphylococcus aureus ATCC 29213; Protocol 1; read-out: MIC
M. tuberculosis H37Rv = conditions: cited from earlier work
[11] = M. tuberculosis Erdman ATCC 35801
[12] = M. tuberculosis Erdman ATCC 35801 with Mouse Serum
[13] = Table 23a, 10 mg/kg BID oral gavage
[14] = Table 23a, 30 mg/kg BID oral gavage
[15] = Table 23a, 100 mg/kg BID oral gavage
[16] = rats, 300 mg/kg twice a day, compared to controls treated twice a day
[17] = doses up to 200 mg/kg/day, 7 days

Which results are given for `CCNC(=O)Nc1nc2cc(-c3cnc(C(C)(C)O)nc3)c(F)c([C@H]3CCCO3)c2[nH]1` [Compound 23A, methanesulfonic acid salt of 1-ethyl-3-[6-fluoro-5-[2-(1-hydroxy-1-methyl-ethyl)pyrimidin-5-yl]-7-[(2R)-tetrahydrofuran-2-yl]-1H-benzimidazol-2-yl]urea]?
MIC [1, 11]: 0.03 µg/mL; MIC [1, 12]: 0.5 µg/mL; Average Lung Burden [2, 13]: 5.08 Log cfu/lungs; Log Reduction vs. Early Control [2, 13]: −0.10 Log; Log Reduction vs. Late Control [2, 13]: 0.13 Log; Average Lung Burden [2, 14]: 4.11 Log cfu/lungs; Log Reduction vs. Early Control [2, 14]: 0.86 Log; Log Reduction vs. Late Control [2, 14]: 1.09 Log; Average Lung Burden [2, 15]: 3.22 Log cfu/lungs; Log Reduction vs. Early Control [2, 15]: 1.76 Log; Log Reduction vs. Late Control [2, 15]: 1.98 Log; reduction of bacterial burdens versus the early control ([2]; doses of 30 and 100 mg/kg): 0.7-1.5 logs; Mean food consumption [3]: reduced; adverse observations or effects on mean body weight [3]: No adverse observations or effects on mean body weight; dose levels without adverse toxicity within the scope of the study [3]: ≤ 600 mg/kg/day; NOEL (No-Observable-Effect-Level) [3]: 100 mg/kg; exposures for different dosage levels [3]: dose related; AST [3, 16]: statistically higher; mean ALT [3, 16]: statistically higher; mean calcium ion concentration (CA) [3, 16]: statistically lower; histopathological findings ([3]; rats): No test article-related histopathological findings

Which results are given for `CCNC(=O)Nc1nc2cc(-c3cnc(C(C)(C)O)nc3)cc([C@H]3CCCO3)c2[nH]1` [Compound 13, 1-ethyl-3-[5-[2-(1-hydroxy-1-methyl-ethyl)pyrimidin-5-yl]-7-[(2R)-tetrahydrofuran-2-yl]-1H-benzimidazol-2-yl]urea]?
MIC [1, 11]: 0.045 µg/mL; MIC [1, 12]: 2 µg/mL; Mean food consumption [3]: reduced; adverse observations or effects on mean body weight [3]: No adverse observations or effects on mean body weight; dose levels without adverse toxicity within the scope of the study [3]: up to 200 mg/kg/day; NOEL (No-Observable-Effect-Level) [3]: 200 mg/kg; exposures for different dosage levels [3]: dose related; histopathological findings ([3]; rats): No test article-related histopathological findings

With `COc1c(N2C[C@@H]3CCCN[C@@H]3C2)c(F)cc2c(=O)c(C(=O)O)cn(C3CC3)c12` [Moxifloxacin, reference compound] as the compound, how does the “Average Lung Burden” value ([2]; Table 23a, 100 mg/kg QD) read?
Its value is 2.94 Log cfu/lungs.

And the “Log Reduction vs. Early Control” value ([2]; Table 23a, 100 mg/kg QD)?
Its value is 2.04 Log.

And the “Log Reduction vs. Late Control” value ([2]; Table 23a, 100 mg/kg QD)?
The value was 2.26 Log.

And the “Log Reduction vs. Early Control” value ([2]; Table 23b, 100 mg/kg QD)?
The value was 2.04 Log.

And the “Log Reduction vs. Late Control” value ([2]; Table 23b, 100 mg/kg QD)?
The value was 1.42 Log.

And the “Median Lung Burden” value ([2]; Table 23b, 100 mg/kg QD)?
Its value is 2.94 Log cfu/lungs.

Which results are given for `CCNC(=O)Nc1nc2cc(-c3cnc(C(C)(C)O)nc3)c(F)c([C@H]3CCCO3)c2[nH]1` [Compound 23, 1-ethyl-3-[6-fluoro-5-[2-(1-hydroxy-1-methyl-ethyl)pyrimidin-5-yl]-7-[(2R)-tetrahydrofuran-2-yl]-1H-benzimidazol-2-yl]urea]?
AUCextrap ([4]; Compound W oral 3 mg/kg): 0.314 µg·h/mL; AUCextrap ([4]; Compound W oral 30 mg/kg): 22.6 µg·h/mL; AUCextrap ([4]; Compound W oral 100 mg/kg): 77.4 µg·h/mL; AUCextrap [5]: 3.81 µg·h/mL; AUCextrap ([6]; Compound W IV 1 mg/kg): 0.31 µg·h/mL; Cl_obs ([6]; Compound W IV 1 mg/kg): 54.9 mL/min/kg; Vss_obs ([6]; Compound W IV 1 mg/kg): 3.8 L/kg; t1/2 ([6]; Compound W IV 1 mg/kg): 1.8 h; AUCextrap ([6]; Compound W IV 5 mg/kg): 3.06 µg·h/mL; Cl_obs ([6]; Compound W IV 5 mg/kg): 27.3 mL/min/kg; Vss_obs ([6]; Compound W IV 5 mg/kg): 4.08 L/kg; t1/2 ([6]; Compound W IV 5 mg/kg): 3.6 h; AUCextrap ([7]; Compound W PO 30 mg/kg): 24.8 µg·h/mL; AUCextrap ([7]; Compound W PO 100 mg/kg): 76.9 µg·h/mL; AUCextrap ([7]; Compound W PO 300 mg/kg): 155 µg·h/mL; clinical signs, body weights, electrocardiography, clinical pathology, organ weights [8, 17]: no clinical signs, or changes in body weights, electrocardiography parameters, clinical pathology parameters, or organ weights; macroscopic or microscopic findings [8, 17]: no macroscopic or microscopic findings; no observed effect level (NOEL) ([8]; male Cynomolgus monkeys, oral gavage once per day for 7 days): 200 mg/kg/day; exposures for different dosage levels ([8]; male Cynomolgus monkeys, oral gavage, toxicokinetics): dose related

Which “Net % increase in total impurities” value [9] does the source give for `CCNC(=O)Nc1nc2cc(-c3cnc(C(C)(C)OP(=O)([O-])[O-])nc3)c(F)c([C@H]3CCCO3)c2[nH]1.[Na+].[Na+]` [Amorphous di-Na salt, disodium (R)-2-(5-(2-(3-ethylureido)-6-fluoro-7-(tetrahydrofuran-2-yl)-1H-benzo[d]imidazol-5-yl)pyrimidin-2-yl)propan-2-yl phosphate] here?
The value was 1.74%.

And the MIC [10]?
Its MIC is 4 µg/mL.

Which results are given for `NC(=O)c1cnccn1` [Pyrazinamide]?
MIC (M. tuberculosis H37Rv; normal pH): 250 µg/mL (≈ 2030 µM); MIC (M. tuberculosis H37Rv; pH 6.0): 50 µg/mL (≈ 406 µM)

Source: US9018216B2, “Solid forms of (R)-2-(5-(2-(3-ethylureido)-6-fluoro-7-(tetrahydrofuran-2-yl)-1H-benzo[d]imidazol-5-yl)pyrimidin-2-yl)propan-2-yl dihydrogen phosphate and salts thereof” (priority 2012, dated 2015)
